Assay results from patent US11866431B2, “Bicyclic compounds” (Vivace Therapeutics, Inc., priority 2018, dated 2024).

Test system: 8XTBD luciferase reporter (YAP reporter) in HEK293T cells
Assay: YAP Reporter Assay
Format: cell-based
Conditions: Homo sapiens, HEK-293T; HEK293T cells stably transfected with 8XTBD luciferase reporter and pRLTK; 24-hr incubation; top concentration 3 μM; read-out: Firefly Luciferase IC50
Method in brief: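 HEK293T cells stably carrying 8XTBD firefly luciferase and TK-renilla (3×10^3 cells/well) dosed 3-4 h after plating with compounds from 3 μM final, 1:3 dilution, 10 points, quadruplicates. After 24 h at 37° C, Dual-Glo readings gave IC50 and maximum inhibition reported separately for firefly and renilla.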

Structure (SMILES)	IC50 [nM]
CC(C)NC(=O)c1ccc2c(-c3ccc(C(F)(F)F)cc3)cc(Br)c(N)c2c1 [Compound 31, 8-amino-7-bromo-N-isopropyl-5-(4-(trifluoromethyl)phenyl)-2-naphthamide]	< 100
COC[C@@H](C)NC(=O)c1ccc2c(-c3ccc(C(F)(F)F)cc3)cccc2c1 [Compound 93, (R)—N-(1-methoxypropan-2-yl)-5-(4-(trifluoromethyl)phenyl)-2-naphthamide]	< 100
C[C@H](CN)NC(=O)c1ccc2c(-c3ccc(C(F)(F)F)cc3)cccc2c1 [Compound 60, (R)—N-(1-aminopropan-2-yl)-5-(4-(trifluoromethyl)phenyl)-2-naphthamide]	< 100
COC[C@H](C)NC(=O)c1ccc2c(-c3ccc(C(F)(F)F)cc3)cccc2n1 [Compound 246, (S)—N-(1-Methoxypropan-2-yl)-5-(4-(trifluoromethyl)phenyl)quinoline-2-carboxamide]	100 to 1000
